In this assay the target is PIK3CA (human) (UniProt P42336). The experiment in a line: Inhibition of PIK3CA Kinase Activity.

A word on the IC50: it is the concentration at which inhibition is half-maximal. A higher IC50 goes with lower potency.

Chain of PIK3CA (human) (P42336 whole entry, looked up): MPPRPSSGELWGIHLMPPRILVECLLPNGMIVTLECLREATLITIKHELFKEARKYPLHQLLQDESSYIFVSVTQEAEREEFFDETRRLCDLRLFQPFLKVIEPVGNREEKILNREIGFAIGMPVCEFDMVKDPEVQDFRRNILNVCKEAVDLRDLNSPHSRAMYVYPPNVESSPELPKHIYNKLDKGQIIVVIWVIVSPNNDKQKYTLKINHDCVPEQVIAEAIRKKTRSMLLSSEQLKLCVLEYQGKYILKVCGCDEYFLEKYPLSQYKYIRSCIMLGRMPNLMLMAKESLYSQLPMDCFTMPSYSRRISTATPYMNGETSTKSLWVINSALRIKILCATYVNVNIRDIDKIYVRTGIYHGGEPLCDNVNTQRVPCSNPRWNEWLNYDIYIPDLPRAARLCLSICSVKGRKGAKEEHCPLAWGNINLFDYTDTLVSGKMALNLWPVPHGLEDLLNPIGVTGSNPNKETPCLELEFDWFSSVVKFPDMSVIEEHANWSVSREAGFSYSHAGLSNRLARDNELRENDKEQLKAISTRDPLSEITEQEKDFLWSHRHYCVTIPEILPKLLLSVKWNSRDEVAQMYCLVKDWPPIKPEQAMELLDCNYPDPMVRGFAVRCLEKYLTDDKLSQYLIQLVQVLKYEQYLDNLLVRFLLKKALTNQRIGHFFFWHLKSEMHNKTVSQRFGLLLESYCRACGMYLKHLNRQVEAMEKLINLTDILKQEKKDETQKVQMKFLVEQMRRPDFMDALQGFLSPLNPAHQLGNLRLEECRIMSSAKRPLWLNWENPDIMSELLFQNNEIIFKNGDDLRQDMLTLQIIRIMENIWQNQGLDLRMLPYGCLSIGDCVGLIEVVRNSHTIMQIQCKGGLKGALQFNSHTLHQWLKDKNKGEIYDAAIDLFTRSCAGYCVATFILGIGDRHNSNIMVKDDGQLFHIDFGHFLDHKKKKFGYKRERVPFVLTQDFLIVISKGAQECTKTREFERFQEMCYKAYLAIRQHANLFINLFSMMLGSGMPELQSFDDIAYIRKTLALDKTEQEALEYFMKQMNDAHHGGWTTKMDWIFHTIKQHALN

The molecule `CCNc1nc2ccc(-c3ccc4c(c3)CN(c3nc(C)nc5cc(O)ccc35)CCO4)cc2[nH]1` registered an IC50 not above 0.01 µM. Molecule `CC(C)(O)CCS(=O)(=O)c1cc(-c2ccc3c(c2)CN(c2ncnc4c2CC(C)(C)CC4)CCO3)cnc1N` had an IC50 of 0.01 to 0.05 µM.

On to `COC(=O)Nc1nc2ccc(-c3ccc4c(c3)CN(c3ncnc5[nH]ccc35)CCO4)cc2[nH]1`, for which the IC50 lay in the range of 0.25 to 1 µM. With `COC(=O)Nc1nc2ccc(-c3ccc4c(c3)CN(c3nc(CN(C)C)nc5c3CC(C)(C)CC5)CCO4)cc2[nH]1`, the IC50 was not above 0.01 µM. `Cc1nc2ccc(-c3ccc4c(c3)CN(c3nc(CNC5CC5)nc5c3CC(C)(C)CC5)CCO4)cc2[nH]1` registered an IC50 of 0.01 to 0.05 µM.

With `CCNCc1nc2c(c(N3CCOc4ccc(-c5ccc6nc(C)[nH]c6c5)cc4C3)n1)CC(C)(C)CC2`, the IC50 is not above 0.01 µM.

In turn, `CC1(C)CCc2ncnc(N3CCOc4ccc(-c5cnc(N6CC[C@H](N)C6)c(S(=O)(=O)N6CC[C@H](N)C6)c5)cc4C3)c2C1` yielded an IC50 of 0.25 to 1 µM. The molecule `CCNC(=O)c1ccc(-c2ccc3c(c2)CN(c2ccnc4ccccc24)CCO3)cc1` came in with an IC50 of 0.25 to 1 µM. `Cc1ccc2c(N3CCOc4ccc(-c5ccc6nc(C)[nH]c6c5)cc4C3)ncnc2c1` showed an IC50 of 0.01 to 0.05 µM. Molecule `Cc1nc2ccc(-c3ccc4c(c3)CN(c3ccnc(N)n3)CCO4)cc2[nH]1` showed an IC50 of 0.25 to 1 µM.

In turn, `Cc1nc2ccc(-c3ccc4c(c3)CN(c3ncnc5c(C#N)c6n(c35)CCCC6)CCO4)cc2[nH]1` showed an IC50 of 0.05 to 0.25 µM.

As for `COc1c(OCc2ccccc2)ccc2c(N3CCOc4ccc(-c5ccc6nc(C)[nH]c6c5)cc4C3)ncnc12`, the IC50 lay in the range of 0.01 to 0.05 µM. Molecule `CNCCN(C)c1ncnc(N2CCOc3ccc(-c4cnc5nc(C6CC6)[nH]c5c4)cc3C2)c1C` displayed an IC50 of 0.25 to 1 µM. As for `COCc1nc2c(c(N3CCOc4ccc(-c5cnc6[nH]c(C)nc6c5)cc4C3)n1)CC(C)(C)CC2`, the IC50 was in the range of 0.01 to 0.05 µM. `COc1c(O)ccc2c(N3CCOc4ccc(-c5ccc6nc(C)[nH]c6c5)cc4C3)ncnc12`: the IC50 was 0.01 to 0.05 µM.

`CC1(C)CCc2ncnc(N3CCOc4ccc(-c5cnc(Cl)c(OC(F)F)c5)cc4C3)c2C1` gave an IC50 of 0.25 to 1 µM.

As to `CC1(C)C=Cc2ncnc(N3CCOc4ccc(-c5ccc(-c6ncc[nH]6)cc5)cc4C3)c2C1`, the IC50 lay in the range of 0.01 to 0.05 µM. In turn, `Cc1nc2ncc(-c3ccc4c(c3)CN(c3nc(CN[C@@H](C)C(=O)O)nc5c3CC(C)(C)CC5)CCO4)cc2[nH]1` returned an IC50 not above 0.01 µM.

On to `Cc1nc2ncc(-c3ccc4c(c3)CN(c3ncnc(C)c3CC3CC3)CCO4)cc2[nH]1`, for which the IC50 lay within 0.05 to 0.25 µM. As for `Cc1nc2ccc(-c3ccc4c(c3)CN(c3ncnc(C)c3Cc3ccc(F)cc3)CCO4)cc2[nH]1`, the IC50 lay in the range of 0.01 to 0.05 µM. The same measure for `Cc1nc2cc(-c3ccc4c(c3)CN(c3ncnc(C)c3Cc3ccc(F)cc3)CCO4)cnc2[nH]1`: 0.01 to 0.05 µM. Regarding `Cc1nc2ccc(-c3ccc4c(c3)CN(c3ccnc5cc(C#N)ccc35)CCO4)cc2[nH]1`, the IC50 fell in the range of 0.05 to 0.25 µM.

`CN(c1cc(-c2ccc3c(c2)CN(c2ncnc4c2CC(C)(C)CC4)CCO3)cnc1Cl)S(C)(=O)=O`: the IC50 is 0.25 to 1 µM. The molecule `CC(C)(N)CCNS(=O)(=O)c1cc(-c2ccc3c(c2)CN(c2ncnc4c2CC(C)(C)CC4)CCO3)cnc1N` came in with an IC50 of 0.01 to 0.05 µM. `Cc1nc(CN(C)C)nc(N2CCOc3ccc(-c4ccc5[nH]c(CF)nc5c4)cc3C2)c1C(C)C` came in with an IC50 not above 0.01 µM. `Cc1nc2cc(-c3ccc4c(c3)CN(c3nc(CN(C)C)nc(C)c3C(C)C)CCO4)ccc2[nH]1` came in with an IC50 not above 0.01 µM. In turn, `Cc1nc(CN(C)C)nc(N2CCOc3ccc(-c4ccc5[nH]c(C(F)F)nc5c4)cc3C2)c1Cc1ccc(F)cc1` gave an IC50 not above 0.01 µM. `Cc1nc(N2CCOc3ccc(-c4ccc(N)nc4)cc3C2)c2ccccc2n1`: the IC50 was in the range of 0.25 to 1 µM. As to `CC1(C)CCc2nc(CC#N)nc(N3CCOc4ccc(-c5cnc6sc(N)nc6c5)cc4C3)c2C1`, the IC50 lay in the range of 0.01 to 0.05 µM. The molecule `Cc1nc2ccc(-c3ccc4c(c3)CN(c3ncnc(C)c3C(C)C)CCO4)cc2[nH]1` yielded an IC50 of 0.05 to 0.25 µM. In the case of `CC[C@H]1CCc2c(ncnc2N2CCOc3ccc(-c4cnc5nc(NC(=O)OC)[nH]c5c4)cc3C2)C1`, the IC50 is not above 0.01 µM. In turn, `CC1(C)CCc2ncnc(N3CCOc4ccc(-c5cnc(C#N)c(NS(C)(=O)=O)c5)cc4C3)c2C1` displayed an IC50 of 0.05 to 0.25 µM. `CC1(C)CCc2ncnc(N3CCOc4ccc(-c5cnc6nc[nH]c6c5)cc4C3)c2C1` came in with an IC50 of 0.01 to 0.05 µM. In turn, `C=CCc1c(C)nc(CN(C)C)nc1N1CCOc2ccc(-c3ccc4nc(C)[nH]c4c3)cc2C1` returned an IC50 not above 0.01 µM. `CC1(C)CCc2ncnc(N3CCOc4ccc(-c5cnc(N)c(S(=O)(=O)CC(O)CO)c5)cc4C3)c2C1` (centres undefined): the IC50 was in the range of 0.01 to 0.05 µM. On to `CN(C)Cc1nc2c(c(N3CCOc4ccc(-c5ccc6[nH]c(C(F)F)nc6c5)cc4C3)n1)CC(C)(C)CC2`, for which the IC50 is 0.01 to 0.05 µM. The same measure for `Cc1nc2ncc(-c3ccc4c(c3)CN(c3ncnc(N5CCC5)c3C)CCO4)cc2[nH]1`: 0.05 to 0.25 µM. The molecule `Cc1nc(Nc2ccccc2)c(C)c(N2CCOc3ccc(-c4cnc5nc[nH]c5c4)cc3C2)n1` gave an IC50 of 0.01 to 0.05 µM. In turn, `CCNc1nc2ccc(-c3ccc4c(c3)CN(c3ncnc(NCC)c3C)CCO4)cc2[nH]1` had an IC50 not above 0.01 µM. With `CC[C@H]1CCc2c(ncnc2N2CCOc3ccc(-c4cnc5nc([C@@H](C)N)[nH]c5c4)cc3C2)C1` the figure was 0.05 to 0.25 µM; with `CN(C)Cc1nc2c(c(N3CCOc4ccc(-c5cnc(Cl)c(NS(C)(=O)=O)c5)cc4C3)n1)CC(C)(C)CC2`, not above 0.01 µM; with `COCCNS(=O)(=O)c1cc(-c2ccc3c(c2)CN(c2ncnc4c2CC(C)(C)CC4)CCO3)cnc1N`, 0.01 to 0.05 µM. Molecule `CC1(C)CCc2ncnc(N3CCOc4ccc(-c5cnc6c(c5)S(=O)(=O)NC(=O)N6)cc4C3)c2C1` had an IC50 of 0.05 to 0.25 µM. As for `Cc1nc2ccc(-c3ccc4c(c3)CN(c3ncnc5ccc(Cl)cc35)CCO4)cc2[nH]1`, the IC50 lay within 0.01 to 0.05 µM.

These data come from the Kinase Knowledgebase extract (Sharma et al. 2016).
